Test: Long-period stability test of powder injections
Format: physicochemical
Details: placed at room temperature for 28 months
Procedure: All contents and purities in the present invention are determined using high performance liquid chromatography (HPLC), and chromatography conditions are: filler: octadecylsilane chemically bonded silica; mobile phase: 0.005 mol/L tetrabutyl ammonium hydroxide-acetonitrile (70:30) with pH of 5.0 adjusted by acetic acid; flow rate: 1.5 mL per minute; detection wavelength: 230 nm. The number of theoretical plates should not be less than 3500, as calculated according to sulbactam peak, the separation degree of […] peak and sulbactam peak should meet the requirements, and before official HPLC determination, the precision, accuracy, linearity and range of each specific to-be-quantified substance are also required to be subjected to methodology validation.

cocrystal of piperacillin sodium and sulbactam sodium [cocrystal A]
content of piperacillin sodium: higher than 96.5% | content of sulbactam sodium: higher than 96.5% | total content of related substances: ≤ 2%

Source: patent US9499565B2 (BEIJING XINTIANYU TECHNOLOGY DEVELOPMENT CO., LTD., priority 2012, dated 2016)
